Data from PubChem BioAssay (NCI).
Several values for one entry are separate records, joined by “and”; a condition that tells them apart may be missing. Identical values can stand only once.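 48-hour exposure; five concentrations; linearly interpolated endpoints. Here, GI50 denotes the concentration required for 50% inhibition of growth. TGI marks complete inhibition of growth.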

System: MDA-MB-468 breast
Experiment: growth of human tumour cells (NCI), 48 h

SMILES | GI50 | TGI
COc1cccc(CNCCN2C(=O)c3ccc4c5c(ccc(c35)C2=O)C(=O)N(CCNCc2cccc(OC)c2)C4=O)c1 | 1760 nM | 3560 nM
COc1ccc2c(c1)c(-c1nonc1-c1cn(C)c3ccccc13)cn2C | 330 nM | 
[Cl][Ru].c1ccc(-c2cc(-c3ccccn3)nc(-c3ccccn3)c2)cc1.c1ccc(-c2ccnc3c2ccc2c(-c4ccccc4)ccnc23)cc1 | 208 nM | 635 nM
COc1cc(Cl)cc(-c2nn(-c3cccc(NC(=O)c4cccc(C(F)(F)F)c4)c3)cc2-c2ccncc2)c1 | 4260 nM | > 100000 nM
C=C1CC[C@@H]2C(C)(C)[C@H](O)CC[C@@]2(C)[C@@H]1COc1ccc2ccc(=O)oc2c1 | 20500 nM | 78200 nM
CN1CCN(CCOc2ccc(-c3cnc4c(-c5cccc(F)c5F)cnn4c3)cc2)CC1 | 1450 nM | 3060 nM
CCn1cc(C2NC(=O)c3ccccc3N2)c2cccc(C)c21 (stereo not drawn) | 216 nM | 656 nM
c1ccc(-c2n(Cc3ccc4ccccc4n3)cc[n+]2Cc2ccc3ccccc3n2)cc1 | 221 nM | 1430 nM
COc1ccc2cnc(N)c(C#Cc3cc(C(=O)Nc4ccc(CN5CCN(C)CC5)c(C(F)(F)F)c4)cnc3C)c2c1 | 8830 nM | 27600 nM
C[C@H](Nc1ccc2c(c1)OCCn1cc(N3C(=O)OC[C@H]3C(F)F)nc1-2)C(N)=O | 343 nM | 6270 nM
CN(C)c1ccc2nc3ccc(=[N+](C)C)c([N+](=O)[O-])c-3sc2c1 | 1410 nM | 3350 nM
O=C(c1ccccc1)N(C(=S)NCCc1ccc(Cl)cc1)c1ccc(Cl)cc1 | 5410 nM | 33400 nM
CC(=O)O[C@H]1C[C@H](O[C@H]2[C@@H](O)C[C@H](O[C@H]3[C@@H](O)C[C@H](O[C@H]4CC[C@@]5(C)C(CCC6C5C[C@@H](O)[C@]5(C)[C@@H](C7=CC(=O)OC7)CC[C@]65O)C4)O[C@@H]3C)O[C@@H]2C)O[C@H](C)[C@H]1O[C@@H]1O[C@H](CO)[C@@H](O)[C@H](O)[C@H]1O (stereo partly drawn) | 85.6 nM and 220 nM | 223 nM and 577 nM
CCOC(=O)c1cnc2c(C)cc(C)cc2c1NCCCN(C)C | 2000 nM | 8450 nM
Cc1cc(Cl)ccc1Nc1nc(C(F)(F)F)ccc1C(=O)N/N=C/c1cccc(O)c1 | 1510 nM | 9690 nM
CCOC(=O)c1c(NC(=O)c2cccc(C(F)(F)F)c2)sc2c(CN3CCN(C)CC3)c(O)ccc12 | 1650 nM | 3250 nM
Cc1ccc2c(c1)C(=O)C(c1c(-c3[nH]c(=O)c4ccc(C)cc4c3O)c(O)c3ccccc3c1O)=NC2=O | 313 nM | 987 nM
COc1ccc(C(=O)N2N=C(c3ccc(Br)cc3)CC2c2cn(-c3ccccc3)nc2-c2ccccc2)cc1 (stereo not drawn) | 6590 nM | > 50000 nM
CCOC(=O)C(=Cc1ccc(-c2ccccc2)cc1)C(=O)OCC | 3240 nM | 10100 nM

SMILES | GI50 | TGI
O=C1/C(=C/c2ccc(Cl)cc2Cl)CN(S(=O)(=O)c2ccccc2)C/C1=C\c1ccc(Cl)cc1Cl | 687 nM | 2730 nM
COc1ccc(-c2nc(S(=O)(=O)c3ccccc3)c(S(=O)CC(=O)N3CCC(C)CC3)o2)cc1 (stereo not drawn) | 1630 nM | 4650 nM
O=S(=O)(Nc1cccc(Cl)c1)c1ccc(-c2cnc(C3CC3)o2)cc1 | 411 nM | 12200 nM
N#Cc1c(NC(=O)c2cccc(C(F)(F)F)c2F)sc2c1CCC(=O)C2 | 292 nM | 1030 nM
CN1CCN(CCCOc2ccc3ncnc(Nc4ccc(OCc5cccc(F)c5)c(Cl)c4)c3c2)CC1 | 367 nM | 1840 nM
CC[C@H](C)[C@H](NC(=O)C12CC(NC)(C1)C2)C(=O)N(C)[C@H](C[C@@H](OC(C)=O)c1nc(C(=O)N[C@@H](Cc2ccccc2)C[C@H](C)C(=O)OC)cs1)C(C)C | 59.1 nM | 2260 nM
Cn1ccnc1C(=O)/C=C/c1ccc(C(=O)Nc2ccc(F)cc2)cc1 | 813 nM | 3060 nM
CC(C)c1ccc(COCc2cc(CN3CCCC3)c(O)c3ncccc23)cc1 | 401 nM | 1880 nM
CCOc1cc2ncc(C#N)c(Nc3ccc(F)c(Cl)c3)c2cc1NC(=O)CC1CCSS1 (stereo not drawn) | 473 nM | 1170 nM
Cc1cc2nc(CS)[nH]c2cc1C | 13000 nM | 30400 nM
COc1cc(/C=C\c2cc(/C=C\c3ccc(O)c(OC)c3)n(C(=O)COc3ccc(Cl)cc3Cl)n2)ccc1O | 1990 nM | 5340 nM
C=C1C(=O)O[C@H]2[C@H]1CC/C(COC(=O)NCc1ccc(Cn3c(=O)sn(CCCC)c3=O)cc1)=C\CC[C@@]1(C)O[C@@H]21 | 1730 nM | 3630 nM
COc1cc2c(Nc3ccc(Cl)c(Cl)c3F)ncnc2cc1OCC1C[C@@H]2CN(C)C[C@@H]2C1 (stereo partly drawn) | 24.1 nM and 21.7 nM and 21.2 nM | 175 nM and 633 nM and 213 nM
N#C/C(=C\c1ccc2c(c1)OCO2)n1nnc2ccccc21 | 555 nM | 7980 nM
COc1ccc(OC)c(N(CCN2C(=O)c3ccccc3C2=O)C(=O)CCl)c1 | 4430 nM | 22000 nM
Cc1ccc(C2CC(c3cccc(Nc4ccncc4)c3)=NN2c2cc(Cl)cc(Cl)c2)cc1 (stereo not drawn) | 1410 nM | 2840 nM
O=C1Nc2ccccc2/C1=C/C(=N/c1nnc(-c2ccc(Cl)cc2)s1)c1ccccc1 | 2020 nM | 6270 nM
COC(=O)c1ccc2[nH]c(O)c(C(=Nc3ccc(N(C)C(=O)CN4CCN(C)CC4)cc3)c3cccc(OC)c3)c2c1 | 1440 nM | 3500 nM
